35 compounds from US10538491B2, “4,5-substituted picolinamide and picolinonitrile metabotropic glutamate receptor 2 negative allosteric modulators” (Vanderbilt University, priority 2015, dated 2020) can be followed below.

SMILES strings stand for the structures.

The experiment concerns the target rat mGlu2 (Rattus norvegicus (Rat), UniProt P31421). The experiment in a line: mGlu2 Ca2+ flux assay. To be noted: for IC50: Gα15 HEK293 cells stably expressing rat mGlu2, glutamate EC80, >10,000 = no plateau, >30,000 = no measurable activity; for remaining activity at 30 µM: read-out: rat mGlu2 Glu max. Type of experiment: cell-based. In a few lines: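 Gα15 HEK293 cells stably expressing rat mGlu2, Fluo-4 loaded; compound added, then glutamate at EC20 after 2.3 min and EC80 afterward, calcium flux read as F/F0. Peak amplitude around EC80 addition normalized to glutamate max; IC50 by unconstrained 4-parameter fit, top concentration 30 μM.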

Where [1] appears, read: amplitude of response in the presence of 30 μM test compound as percentage of maximal response to glutamate.

rat mGlu2, sequence (P31421 19-872): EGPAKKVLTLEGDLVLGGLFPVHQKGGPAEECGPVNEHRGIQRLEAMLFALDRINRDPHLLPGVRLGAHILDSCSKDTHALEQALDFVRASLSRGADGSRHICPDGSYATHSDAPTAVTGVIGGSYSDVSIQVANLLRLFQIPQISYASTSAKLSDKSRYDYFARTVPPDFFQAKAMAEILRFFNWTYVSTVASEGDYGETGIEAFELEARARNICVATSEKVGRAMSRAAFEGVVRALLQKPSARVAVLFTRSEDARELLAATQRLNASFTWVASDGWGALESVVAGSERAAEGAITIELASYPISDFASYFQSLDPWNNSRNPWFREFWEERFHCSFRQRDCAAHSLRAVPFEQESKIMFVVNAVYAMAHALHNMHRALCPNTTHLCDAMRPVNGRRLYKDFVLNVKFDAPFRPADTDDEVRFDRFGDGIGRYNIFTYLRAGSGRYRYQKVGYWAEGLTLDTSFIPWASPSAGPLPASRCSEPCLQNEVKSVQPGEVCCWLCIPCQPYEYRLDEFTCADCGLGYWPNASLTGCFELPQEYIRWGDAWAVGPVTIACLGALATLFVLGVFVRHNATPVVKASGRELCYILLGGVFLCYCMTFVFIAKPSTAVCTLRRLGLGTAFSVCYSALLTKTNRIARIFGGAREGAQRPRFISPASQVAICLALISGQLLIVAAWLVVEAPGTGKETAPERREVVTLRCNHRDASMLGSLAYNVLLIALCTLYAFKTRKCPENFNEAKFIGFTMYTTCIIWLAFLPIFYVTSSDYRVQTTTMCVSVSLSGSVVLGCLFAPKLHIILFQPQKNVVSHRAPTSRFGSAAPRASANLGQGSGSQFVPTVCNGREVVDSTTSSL

As for `NC(=O)c1cc(-c2ccc(F)cc2)c(N2CCC(Oc3ccc(C(F)(F)F)nc3)CC2)cn1` [Compound 77, 4-(4-Fluorophenyl)-5-(4-((6-(trifluoromethyl)pyridin-3-yl)oxy)piperidin-1-yl)picolinamide], the IC50 was greater than 30 µM. In addition, under setting [1], the remaining activity at 30 µM was found to be 35.1%.

In turn, `CC1(C)CN(Cc2cnc(C(N)=O)cc2-c2ccc(F)cc2)CCO1` [Compound 78, 5-((2,2-dimethylmorpholino)methyl)-4-(4-fluorophenyl)picolinamide] returned an IC50 of 0.531 µM. The remaining activity at 30 µM under setting [1] was -0.32%. `C[C@@H]1CN(Cc2cnc(C(N)=O)cc2-c2ccc(F)cc2)C[C@H](C)O1` [Compound 79, 5-(((cis)-2,6-dimethylmorpholino)methyl)-4-(4-fluorophenyl)picolinamide] showed a concentration for half-maximal inhibition (IC50) of 0.987 µM. Under setting [1], the remaining activity at 30 µM turned out to be 0.52%. The corresponding values for `Cn1cc(-c2cc(C(N)=O)ncc2OCc2cc(F)cc(F)c2)cn1` [Compound 80, 5-((3,5-difluorobenzyl)oxy)-4-(1-methyl-1H-pyrazol-4-yl)picolinamide] are 4.13 µM and -0.09%. `NC(=O)c1cc(-c2ccc(F)cc2)c(OCc2cccc(Br)c2F)cn1` [Compound 81, 5-((3-bromo-2-fluorobenzyl)oxy)-4-(4-fluorophenyl)picolinamide]: the half-maximal inhibitory concentration (IC50) was determined as 1.53 µM. Further, under setting [1], the remaining activity at 30 µM stood at 2.19%.

Compound `Cn1cc(-c2cc(C(N)=O)ncc2OCc2cccnc2)cn1` [Compound 82, 4-(1-methyl-1H-pyrazol-4-yl)-5-(pyridin-3-ylmethoxy)picolinamide] registered an IC50 greater than 30 µM.

The compound `COc1ccc(-c2cc(C(N)=O)ncc2OCc2ccc(C)nc2)c(F)c1` [Compound 83, 4-(2-fluoro-4-methoxyphenyl)-5-((6-methylpyridin-3-yl)methoxy)picolinamide] gave an IC50 of 0.216 µM. Under setting [1], the remaining activity at 30 µM was found to be 1%. In turn, `Cc1ccc(COc2cnc(C(N)=O)cc2-c2ccc(C(F)(F)F)nc2)cn1` [Compound 84, 5′-((6-methylpyridin-3-yl)methoxy)-6-(trifluoromethyl)-[3,4′-bipyridine]-2′-carboxamide] gave an IC50 greater than 30 µM.

`Cc1ccc(COc2cnc(C(N)=O)cc2-c2cnn(C)c2)cn1` [Compound 85, 4-(1-methyl-1H-pyrazol-4-yl)-5-((6-methylpyridin-3-yl)methoxy)picolinamide] came in with an IC50 greater than 10 µM. In addition, the remaining activity at 30 µM under setting [1] is 46.7%. For `COc1ccc(-c2cc(C(N)=O)ncc2OCc2ccc(C(F)(F)F)nc2)c(F)c1` [Compound 86, 4-(2-fluoro-4-methoxyphenyl)-5-((6-(trifluoromethyl)pyridin-3-yl)methoxy)picolinamide] the same measures were 0.44 µM and 1.16%. The compound `Cn1cc(-c2cc(C(N)=O)ncc2OCc2ccc(C(F)(F)F)nc2)cn1` [Compound 87, 4-(1-methyl-1H-pyrazol-4-y1)-5-((6-(trifluoromethyl)pyridin-3-yl)methoxy)picolinamide] came in with a 50% inhibitory concentration (IC50) greater than 10 µM. In addition, under setting [1], the “rat mGlu2 Glu max” value came to 29.69%. Compound `COc1ccc(-c2cc(C(N)=O)ncc2OCc2ccnc(C)c2)c(F)c1` [Compound 88, 4-(2-fluoro-4-methoxyphenyl)-5-((2-methylpyridin-4-yl)methoxy)picolinamide] registered a half-maximal inhibitory concentration (IC50) of 0.029 ± 0.005 µM. The remaining activity at 30 µM under setting [1] was found to be 1.65 ± 0.23%. As for `Cc1cc(COc2cnc(C(N)=O)cc2-c2cnn(C)c2)ccn1` [Compound 89, 4-(1-methyl-1H-pyrazol-4-yl)-5-((2-methylpyridin-4-yl)methoxy)picolinamide], the IC50 is greater than 10 µM. Also, the remaining activity at 30 µM under setting [1] stood at 30.7%. For `NC(=O)c1cc(-c2ccc(F)cc2)c(COc2cc(F)cc(F)c2)cn1` [Compound 90, 5-((3,5-difluorophenoxy)methyl)-4-(4-fluorophenyl)picolinamide] the same measures were 2.03 µM and 0.21%. The corresponding values for `NC(=O)c1cc(-c2ccc(F)cc2)c(COc2ccc(C(F)(F)F)nc2)cn1` [Compound 91, 4-(4-fluorophenyl)-5-(((6-(trifluoromethyl)pyridin-3-yl)oxy)methyl)picolinamide] are 0.639 µM and 0.51%. For `Cc1ccc(OCc2cnc(C(N)=O)cc2-c2ccc(F)cc2)cn1` [Compound 92, 4-(4-fluorophenyl)-5-(((6-methylpyridin-3-yl)oxy)methyl)picolinamide] the same measures were 1.66 µM and -2.16%. With `NC(=O)c1cc(-c2ccc(F)cc2)c(COc2ccnc(C(F)(F)F)c2)cn1` [Compound 93, 4-(4-fluorophenyl)-5-(((2-(trifluoromethyl)pyridin-4-yl)oxy)methyl)picolinamide], the half-maximal inhibitory concentration (IC50) is 0.477 µM. In addition, under setting [1], the remaining activity at 30 µM was 0.38%.

As for `NC(=O)c1cc(-c2ccc(F)cc2)c(OCCN2CCOCC2)cn1` [Compound 94, 4-(4-fluorophenyl)-5-(2-morpholinoethoxy)picolinamide], the 50% inhibitory concentration (IC50) was greater than 10 µM. Further, under setting [1], the remaining activity at 30 µM was 49%. For `C[C@@H]1CN(CCOc2cnc(C(N)=O)cc2-c2ccc(F)cc2)C[C@H](C)O1` [Compound 95, 5-(2-((cis)-2,6-dimethylmorpholino)ethoxy)-4-(4-fluorophenyl)picolinamide] the same measures were greater than 10 µM and 22.8%. For `NC(=O)c1cc(-c2ccc(F)cc2)c(OCCCN2CCC(F)(F)CC2)cn1` [Compound 96, 5-(3-(4,4-difluoropiperidin-1-yl)propoxy)-4-(4-fluorophenyl)picolinamide] the same measures were 3.27 µM and 7.38%. The compound `CC1CN(CCCOc2cnc(C(N)=O)cc2-c2ccc(F)cc2)CCO1` (stereo not drawn) [Compound 97, 4-(4-fluorophenyl)-5-(3-(2-methylmorpholino)propoxy)picolinamide] showed an IC50 greater than 10 µM. For the same compound, the remaining activity at 30 µM under setting [1] came out at 22%. For `CC1(C)CN(CCCOc2cnc(C(N)=O)cc2-c2ccc(F)cc2)CCO1` [Compound 98, 5-(3-(2,2-dimethylmorpholino)propoxy)-4-(4-fluorophenyl)picolinamide] the same measures were 3.25 µM and 0.97%. The corresponding values for `C[C@@H]1CN(CCCOc2cnc(C(N)=O)cc2-c2ccc(F)cc2)C[C@H](C)O1` [Compound 99, 5-(3-((cis)-2,6-dimethylmorpholino)propoxy)-4-(4-fluorophenyl)picolinamide] are greater than 10 µM and 15.8%. Regarding `NC(=O)c1cc(-c2ccc(F)cc2)c(OCCCN2CCOCC2)cn1` [Compound 100, 4-(4-fluorophenyl)-5-(3-morpholinopropoxy)picolinamide], the IC50 was greater than 10 µM. The remaining activity at 30 µM under setting [1] was determined as 46.8%. For `NC(=O)c1cc(-c2ccc(F)cc2)c(OCCOc2cc(Br)ccc2F)cn1` [Compound 101, 5-(2-(5-bromo-2-fluorophenoxy)ethoxy)-4-(4-fluorophenyl)picolinamide] the same measures were 4.26 µM and 1.85%. The corresponding values for `NC(=O)c1cc(-c2ccc(F)cc2)c(OCCOc2cc(F)cc(Br)c2)cn1` [Compound 102, 5-(2-(3-bromo-5-fluorophenoxy)ethoxy)-4-(4-fluorophenyl)picolinamide] are 5.24 µM and 3.34%. For `NC(=O)c1cc(-c2ccc(F)cc2)c(OCCOc2ccc(F)c(Br)c2)cn1` [Compound 103, 5-(2-(3-bromo-4-fluorophenoxy)ethoxy)-4-(4-fluorophenyl)picolinamide] the same measures were greater than 10 µM and 53.7%. Regarding `NC(=O)c1cc(-c2ccc(F)cc2)c(OCCOc2cccc(Br)c2F)cn1` [Compound 104, 5-(2-(3-bromo-2-fluorophenoxy)ethoxy)-4-(4-fluorophenyl)picolinamide], the IC50 is greater than 30 µM. Same read-out and setting: the figure for `NC(=O)c1cc(-c2ccc(F)cc2)c(OCCOc2ccccc2Br)cn1` [Compound 105, 5-(2-(2-bromophenoxy)ethoxy)-4-(4-fluorophenyl)picolinamide] is greater than 30 µM.

For `NC(=O)c1cc(-c2ccc(F)cc2)c(OCCOc2cccc(Br)c2)cn1` [Compound 106, 5-(2-(3-bromophenoxy)ethoxy)-4-(4-fluorophenyl)picolinamide], the IC50 was 3.44 µM. Also, the remaining activity at 30 µM under setting [1] turned out to be 26.5%. In addition, the NAM designation result (concentration-dependent decrease in the glutamate EC80 response) is “(Partial NAM)”.

In turn, `NC(=O)c1cc(-c2ccc(F)cc2)c(OCCOc2ccc(F)cc2)cn1` [Compound 107, 5-(2-(4-fluorophenoxy)ethoxy)-4-(4-fluorophenyl)picolinamide] had an IC50 of 8.51 µM. Besides, the remaining activity at 30 µM under setting [1] is -10.7%. For `NC(=O)c1cc(-c2ccc(F)cc2)c(OCCOc2cccc(F)c2)cn1` [Compound 108, 5-(2-(3-fluorophenoxy)ethoxy)-4-(4-fluorophenyl)picolinamide] the same measures were 2.38 µM and 1.95%.

As for `NC(=O)c1cc(-c2ccc(F)cc2)c(OCCOc2ccccc2F)cn1` [Compound 109, 5-(2-(2-fluorophenoxy)ethoxy)-4-(4-fluorophenyl)picolinamide], the remaining activity at 30 µM under setting [1] turned out to be 2.16%.

`NC(=O)c1cc(-c2ccc(F)cc2)c(OCCOc2cc(F)cc(F)c2)cn1` [Compound 110, 5-(2-(3,5-difluorophenoxy)ethoxy)-4-(4-fluorophenyl)picolinamide] yielded an IC50 of 1.72 µM. Further, the remaining activity at 30 µM under setting [1] stood at 38.7%. The corresponding values for `NC(=O)c1cc(-c2ccc(F)cc2)c(OCCOc2cncc(Br)c2)cn1` [Compound 111, 5-(2-((5-bromopyridin-3-yl)oxy)ethoxy)-4-(4-fluorophenyl)picolinamide] are 0.624 µM and 1.34%.
